Values after ≈ are worked out from the molar mass of the structure shown.
Experiments:
E. coli DNA gyrase = E. coli DNA gyrase (Escherichia coli, UniProt P0AES6); assay: DNA gyrase supercoiling assay; type: biochemical; details: for remaining activity at 1 µM: read-out: RA (residual activity of the enzyme), E. Coli DNA gyrase
Protocol: 4.2.3. Determination of Inhibitory Activities on E. coli DNA Gyrase.
All the final compounds were tested for E. coli DNA gyrase inhibitory activity in a supercoiling assay. Activities were determined on streptavidin -coated 96-well microtiter plates from Thermo scientific Pierce. First, the plates were rehydrated with buffer (20 mM Tris -HCl with pH 7.6, 0.01% […]
immobilized. After washing off the unbound oligonucleotide, the enzyme test was performed. The reaction volume of 30 μL in buffer (35 mM Tris-HCl with pH 7.5, 4 mM MgCl 2, 24 mM KCl, 2 […]
1.5 U of DNA gyrase from E. coli or S. aureus, 0.75 μg of relaxed pNO1 plasmid, and 3 μL solution of the inhibitor in 1 0% DMSO and 0.008% Tween 20. Reaction solutions were incubated at 37 °C […]
for 30 min. After that, the TF buffer (50 mM NaOAc with pH 5.0, 50 mM NaCl and 50 mM MgCl2) was added to terminate the enzymatic reaction. After additional incubation for 30 min at rt, during which biotin-oligonucleotide-plasmid triplex was formed, the unbound plasmid was washed off using TF buffer and SybrGOLD in T10 buffer (10 mM Tris HCl wit h pH 8.0 and 1 mM EDTA) was added. The fluorescence was measured with a microplate reader (BioTek Synergy H4, excitation: 485 nm, emission: 535 nm). […]
tested compounds. GraphPad Prism software was used to calculate the IC50 values. The result is given as the average value of three independent measurements. […]

in vitro = details: human, MCF-10A mammary gland epithelial cells (normal cell line)
EGFR = EGFR (Homo sapiens, UniProt P00533); assay: EGFR-TK inhibitory assay
Protocol: Baculoviral expression vectors including pBlueBacHis2B and pFASTBacHTc were used
5ʹ upstream to the EGFR sequence comprised a sequence that encoded (His)6. Sf-9 cells were infected for 72h for protein expression. The pellets of Sf-9 cells were solubilized in a buffer containing sodium vanadate (100 μM), aprotinin (10 μg/mL), triton (1%), HEPES buffer(50mM), ammonium molybdate (10 μM), benzamidine HCl (16 μg/mL), NaCl (10 mM),leupeptin (10 μg/mL) and pepstatin (10 μg/mL) at 0°C for 20 min at pH 7.4, followed by centrifugation for 20 min. To eliminate the nonspecifically bound material, a Ni-NTA super flow packed column was used to pass through and wash the crude extract supernatant first with 10mM and then with 100 mM imidazole. Histidine-linked proteins were first eluted with 250 and then with 500 mM imidazole subsequent to dialysis against NaCl (50 mM), HEPES (20 mM), glycerol (10%) and 1 μg/mL each of aprotinin, leupeptin and pepstatin for 120 min. The purification was performed either at 4 °C or on ice. To record autophosphorylation level, EGFR kinase assay was carried out on the basis of DELFIA/Time-Resolved Fluorometry. The compounds were first
dissolved in DMSO absolute, subsequent to dilution to appropriate concentration using HEPES
(25 mM) at pH 7.4. Each compound (10 μL) was incubated with recombinant enzyme (10 μL, 5
ng for EGFR, 1:80 dilution in 100 mM HEPES) for 10 min at 25 °C, subsequent to the addition of
5X buffer (10 μL, containing 2 mM MnCl2, 100 μM Na3VO4, 20 mM HEPES and 1 mM DTT)
and ATP-MgCl2 (20 μL, containing 0.1 mM ATP and 50 mM MgCl2) and incubation for 1h. The
negative and positive controls were included in each plate by the incubation of enzyme either with
or without ATP-MgCl2. The liquid was removed after incubation and the plates were washed
thrice using a wash buffer. The Europium-tagged antiphosphotyrosine antibody (75 μL, 400 ng)
(§8) was added to each well followed by incubation of 1h and then washing of the plates using buffer.
(§9) The enhancement solution was added to each well and the signal was recorded at excitation and
(§10) The autophosphorylation percentage inhibition by compounds was calculated using the following equation:
calculated. The majority of signals detected by antiphosphotyrosine antibody were from EGFR because the enzyme preparation contained low impurities.

VEGFR-2 = VEGFR-2 (Homo sapiens, UniProt P35968); assay: VEGFR-2 inhibitory assay
Protocol: The outcomes are presented as IC50 values.
as §8, §9, §10
Prepare all the solutions using autoclaved, deionized water and analytical grade reagents.
and store all the reagents at room temperature (unless indicated otherwise).
solution, add 5 mL ultra-pure water; 1×Kinase Assay Buffer: add 25 mL HEPES solution (1 M),
water, adjust pH to 7.5 and constant volume to 500 mL using ultrapure water; 4×Stop solution (40
mM): Mix 0.8 mL of the foregoing EDTA solution, 1 mL 10×Detection Buffer and 8.2 mL ultra-
pure water; 1×Detection Buffer: Mix 1 mL 10×Detection Buffer with 9 mL water; 4×VEGFR
μM) was added to 624 μL 1×Kinase Assay Buffer and mixed; 4×ULight™-labeled JAK1
(substrate) (200 nM, 25 times diluted): 24 μL ULight™-labeled JAK1 (mother liquor
concentration 5 μM) was added to 576 μL 1×Kinase Assay Buffer and mixed; 4×ATP Solution
(40 μM, 250 times diluted): add 3 μL ATP solution (10 mM) to 747 μL 1×Kinase Assay Buffer
2×substrate/ATP Mix: 560 μL foregoing 4×ULight™-labeled JAK1 and 560 μL 4×ATP solution
and mixed (prepared before use). The assays used an ULight-labeled peptide substrate and a
Europium-W1024-labeled antiphosphotyrosine antibody. The VEGFR-2 was purchased from
Carna Biosciences, Inc. (New York, USA). The 384-well plates were obtained from PerkinElmer.
5 μL 2×VEGFR-2 kinase solution (0.5 nM)
was added to 384-well plates homogeneous mixing and pre-reaction at room temperature for 30 min. Next, 2.5 μL 4×Ultra ULightTM-JAK-1(Tyr1023) Peptide (200 nM)/ATP (40 μM) was added to the corresponding wells of a 384-well plate. Negative control: 2.5 μL/well 4×substrate/ATP mixture and 7.5 μL 1×kinase assay buffer in 384-well plate well. Positive control:
μL/well 2×VEGFR-2 kinase solution was added to the 384-well plate, The final concentration of DMSO in the mixing system was 4%. After incubation at room temperature and dark for 60 min, 5 μL 4×stop solution was added to corresponding wells to react for 5 min and then 5 μL 4×detection mix was added to the corresponding wells of a 384-well plate. The mixture was centrifugally mixed and stayed for 60 min at room temperature for color development. The plate was read using a Envision plate reader. The inhibition rate (%) = (positive well reading-compound well reading)/(positive well reading-negative well reading)×100. The corresponding IC50 values were calculated using GraphPad Prism 5.0.

A-549 cells = assay: Antiproliferative MTT assay; details: for IC50: Homo sapiens, A549, read-out: Antiproliferative activity IC50 ± SEM, A-549
Description: (§11) Dose-response assays determined the IC50 values for the novel compounds. We derived the reported data from a minimum of two separate experiments, each consisting of three repetitions per concentration.
Assay for antiproliferative effect

MCF-7 cells = assay: Antiproliferative MTT assay; details: for IC50: Homo sapiens, MCF7, read-out: Antiproliferative activity IC50 ± SEM, MCF-7
Description: as §11
Assay for antiproliferative effect

Panc-1 cells = assay: Antiproliferative MTT assay; details: Homo sapiens, PANC-1, read-out: Antiproliferative activity IC50 ± SEM, Panc-1
Description: as §11
Assay for antiproliferative effect

HT-29 cells = assay: Antiproliferative MTT assay; details: Homo sapiens, HT-29, read-out: Antiproliferative activity IC50 ± SEM, HT-29
Description: as §11
Assay for antiproliferative effect

[1] = system: four cancer cell lines (A-549, MCF-7, Panc-1, HT-29); assay: Antiproliferative MTT assay, average over four cancer cell lines; details: for GI50: Homo sapiens, read-out: Antiproliferative activity, Average (GI50)
Description: as §11
Assay for antiproliferative effect

B. subtilis = assay: MIC by twofold serial dilution; type: cell-based, Bacillus subtilis (ATCC 6051); details: for MIC: Bacillus subtilis, read-out: Minimum inhibitory concentration (MIC), B. subtilis; for MIC / Minimum inhibitory concentration (MIC), B. subtilis: Gram-positive
Protocol: (§1) The antibacterial efficacy of compounds 11b, 11e, and 12b was evaluated against Gram-positive bacteria (S. aureus and B. subtilis) and Gram-negative bacteria (E. coli and P. aeruginosa). Table 5 presents the MICs (nM) of these compounds against the evaluated bacteria, utilizing ciprofloxacin as the reference drug, determined through a twofold serial dilution approach on a 96-well microtiter plate ([Frejat F. O. et al., 2022]).
as §1, with “The” for “Table 5 presents the”, “the tested” for “these”, “bacteria were” for “bacteria, utilizing ciprofloxacin as the reference drug,”, “2022]). See Appendix A for more details.” for “2022]).”
(§2) 4.2. Antimicrobial activity
(§3) 4.2.1. Organisms and culture conditions […]
(§4) 4.2.2. Minimum inhibitory concentration assay
(§5) In 96-well microtiter plates and […] of fresh bacterial culture of a single McFarland unit overnight, a double serial dilution of each compound […] in sterile standard saline were prepared to every single source well. Ciprofloxacin antibiotic (5 mg / mL-1) and normal saline were included as standard reference in each assay. The plates were incubated at 37 0C overnight.
(§6) As an indicator of bacterial growth, […] of p -iodonitrotetrazolium violet (INT) was added to each well and incubated at 37 0C for 30 min. MIC values are recorded as the lowest concentration […]
(§7) tetrazolidium salt acts as an electron accepter and is reduced to a red colored formazan product by biological activity organisms. Where bacterial growth was inhibited, the solution in the well remained clear after incubation with INT. […]

S. aureus = assay: MIC by twofold serial dilution; type: cell-based, Staphylococcus aureus (ATCC 12600); details: Gram-positive; for MIC: Staphylococcus aureus, read-out: Minimum inhibitory concentration (MIC), S. aureus
Protocol: as §1
as §1, with “The” for “Table 5 presents the”, “the tested” for “these”, “bacteria were” for “bacteria, utilizing ciprofloxacin as the reference drug,”, “2022]). See Appendix A for more details.” for “2022]).”
as §2, §3, §4, §5, §6, §7

E. coli = assay: MIC by twofold serial dilution; type: cell-based, Escherichia coli (ATCC 11775); details: Gram-negative; for MIC: Escherichia coli, read-out: Minimum inhibitory concentration (MIC), E. coli
Protocol: as §1
as §1, with “The” for “Table 5 presents the”, “the tested” for “these”, “bacteria were” for “bacteria, utilizing ciprofloxacin as the reference drug,”, “2022]). See Appendix A for more details.” for “2022]).”
as §2, §3, §4, §5, §6, §7

P. aeruginosa = assay: MIC by twofold serial dilution; type: cell-based, Pseudomonas aeuroginosa (ATCC 10145); details: Gram-negative; for MIC: Pseudomonas aeruginosa, read-out: Minimum inhibitory concentration (MIC), P. aeruginosa
Protocol: as §1
as §1, with “The” for “Table 5 presents the”, “the tested” for “these”, “bacteria were” for “bacteria, utilizing ciprofloxacin as the reference drug,”, “2022]). See Appendix A for more details.” for “2022]).”
as §2, §3, §4, §5, §6, §7

Chain of EGFR (P00533 669-1210): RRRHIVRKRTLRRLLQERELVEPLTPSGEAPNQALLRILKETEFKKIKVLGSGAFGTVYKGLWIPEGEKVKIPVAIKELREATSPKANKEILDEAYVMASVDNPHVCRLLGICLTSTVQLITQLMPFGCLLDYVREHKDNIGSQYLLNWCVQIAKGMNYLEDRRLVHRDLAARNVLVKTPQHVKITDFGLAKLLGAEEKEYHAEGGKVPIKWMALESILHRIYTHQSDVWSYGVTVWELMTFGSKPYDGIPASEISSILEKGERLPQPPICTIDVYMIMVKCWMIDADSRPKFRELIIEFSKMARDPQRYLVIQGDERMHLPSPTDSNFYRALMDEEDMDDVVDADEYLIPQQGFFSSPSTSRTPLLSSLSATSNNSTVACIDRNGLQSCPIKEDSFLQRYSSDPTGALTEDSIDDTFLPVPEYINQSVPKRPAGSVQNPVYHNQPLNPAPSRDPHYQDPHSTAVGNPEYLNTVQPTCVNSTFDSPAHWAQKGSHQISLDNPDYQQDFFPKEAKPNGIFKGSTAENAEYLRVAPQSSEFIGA
Chain of VEGFR-2 (P35968 20-1356): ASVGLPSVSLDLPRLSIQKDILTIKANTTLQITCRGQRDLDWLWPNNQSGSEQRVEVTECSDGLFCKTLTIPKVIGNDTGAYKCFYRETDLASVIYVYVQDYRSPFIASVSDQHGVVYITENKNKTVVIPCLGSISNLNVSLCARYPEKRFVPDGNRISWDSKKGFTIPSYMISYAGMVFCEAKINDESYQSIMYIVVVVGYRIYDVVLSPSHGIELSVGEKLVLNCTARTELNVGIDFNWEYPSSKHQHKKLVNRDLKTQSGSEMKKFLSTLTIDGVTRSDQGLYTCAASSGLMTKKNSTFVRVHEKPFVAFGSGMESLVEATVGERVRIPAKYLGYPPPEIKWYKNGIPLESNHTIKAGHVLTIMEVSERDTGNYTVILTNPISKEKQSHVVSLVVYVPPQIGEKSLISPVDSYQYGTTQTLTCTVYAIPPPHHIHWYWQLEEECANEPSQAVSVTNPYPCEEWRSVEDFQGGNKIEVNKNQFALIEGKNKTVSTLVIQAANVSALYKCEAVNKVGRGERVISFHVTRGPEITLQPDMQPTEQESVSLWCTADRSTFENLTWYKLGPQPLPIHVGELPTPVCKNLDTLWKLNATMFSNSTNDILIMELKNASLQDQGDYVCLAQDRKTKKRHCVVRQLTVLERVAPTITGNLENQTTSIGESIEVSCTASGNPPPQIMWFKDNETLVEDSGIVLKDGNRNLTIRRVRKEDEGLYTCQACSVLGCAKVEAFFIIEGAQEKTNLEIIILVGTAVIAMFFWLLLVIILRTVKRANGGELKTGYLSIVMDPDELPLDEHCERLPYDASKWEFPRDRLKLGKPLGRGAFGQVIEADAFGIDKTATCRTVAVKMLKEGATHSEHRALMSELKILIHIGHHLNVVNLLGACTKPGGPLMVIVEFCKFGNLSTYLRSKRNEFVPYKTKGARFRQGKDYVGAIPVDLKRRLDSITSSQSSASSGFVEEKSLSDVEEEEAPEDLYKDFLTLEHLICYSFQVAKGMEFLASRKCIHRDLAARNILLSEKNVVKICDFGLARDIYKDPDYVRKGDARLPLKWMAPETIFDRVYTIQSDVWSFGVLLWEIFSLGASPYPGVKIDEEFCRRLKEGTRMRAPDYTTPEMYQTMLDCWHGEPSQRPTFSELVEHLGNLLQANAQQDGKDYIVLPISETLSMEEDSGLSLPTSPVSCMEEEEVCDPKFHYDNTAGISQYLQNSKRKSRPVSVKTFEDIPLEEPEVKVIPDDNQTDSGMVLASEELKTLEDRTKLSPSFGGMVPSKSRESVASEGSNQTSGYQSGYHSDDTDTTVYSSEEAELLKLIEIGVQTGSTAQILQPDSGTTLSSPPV

Structure (SMILES)	remaining activity at 1 µM (E. coli DNA gyrase) [%]	viability at 96 h, 50 µM (in vitro) [%]	IC50 (EGFR) [nM]	IC50 (VEGFR-2) [µM]	IC50 (A-549 cells) [nM]	IC50 (MCF-7 cells) [nM]	IC50 (Panc-1 cells) [nM]	IC50 (HT-29 cells) [nM]	GI50 [1] [nM]	MIC (B. subtilis) [µM]	MIC (S. aureus) [µM]	MIC (E. coli) [µM]	MIC (P. aeruginosa) [µM]	other results
Cc1nc(SCC(=O)c2cc3ccccc3oc2=O)sc1C(=O)/C=C/c1ccccc1 [Compound 11a, (E)-3-(2-((5-Cinnamoyl-4-methylthiazol-2-yl)thio)acetyl)-2H-chromen-2-one]	72	91	93 ± 4	5.2 ± 0.03	40 ± 2	48 ± 3	44 ± 3	44 ± 3	44	–	–	–	–	–
COc1ccc(/C=C/C(=O)c2sc(SCC(=O)c3cc4cc(Br)ccc4oc3=O)nc2C)cc1 [Compound 11f, (E)-6-Bromo-3-(2-((5-(3-(4-methoxyphenyl)acryloyl)-4-methylthiazol-2-yl)thio)acetyl)-2H-chromen-2-one]	71	93	71 ± 3	2.9 ± 0.01	25 ± 1	29 ± 1	26 ± 1	28 ± 1	27	–	–	–	–	Fold more potent than erlotinib (IC50), A-549 (A-549 cells; A-549): 1.2 fold; Fold more potent than erlotinib (IC50), MCF-7 (MCF-7 cells; MCF-7): 1.4 fold; Fold more active than erlotinib (GI50) ([1]; four cancer cell lines): 1.2 fold
O=C(O)c1cn(C2CC2)c2cc(N3CCNCC3)c(F)cc2c1=O [Ciprofloxacin, reference compound]	–	–	–	–	–	–	–	–	–	0.01 (≈ 0.00331 µg/mL)	0.03 ± 0.002 (≈ 0.00994 µg/mL)	0.06 ± 0.004 (≈ 0.0199 µg/mL)	0.06 ± 0.004 (≈ 0.0199 µg/mL)	Minimum inhibitory concentration (MIC), B. subtilis (B. subtilis): 10 ± 1 nM (≈ 0.00331 µg/mL)
COc1ccc(/C=C/C(=O)c2sc(SCC(=O)c3cc4ccccc4o3)nc2C)cc1 [Compound 12c, (E)-1-(2-((2-(Benzofuran-2-yl)-2-oxoethyl)thio)-4-methylthiazol-5-yl)-3-(4-methoxyphenyl)prop-2-en-1-one]	59	91	83 ± 3	4.05 ± 0.02	33 ± 2	39 ± 2	36 ± 2	37 ± 2	36	–	–	–	–	–
Cc1nc(SCC(=O)c2cc3ccccc3o2)sc1C(=O)/C=C/c1ccc(Cl)cc1 [Compound 12b, (E)-1-(2-((2-(Benzofuran-2-yl)-2-oxoethyl)thio)-4-methylthiazol-5-yl)-3-(4-chlorophenyl)prop-2-en-1-one]	–	90	–	–	61 ± 5	68 ± 5	64 ± 5	65 ± 5	65	0.029 ± 0.001 (≈ 0.0132 µg/mL)	0.034 ± 0.002 (≈ 0.0154 µg/mL)	0.062 ± 0.004 (≈ 0.0281 µg/mL)	0.064 ± 0.004 (≈ 0.0291 µg/mL)	IC50 (E. coli DNA gyrase): 197 ± 12 nM
Cc1nc(SCC(=O)c2cc3cc(Br)ccc3oc2=O)sc1C(=O)/C=C/c1ccccc1 [Compound 11d, (E)-6-Bromo-3-(2-((5-cinnamoyl-4-methylthiazol-2-yl)thio)acetyl)-2H-chromen-2-one]	54	95	76 ± 3	3.6 ± 0.02	28 ± 1	31 ± 1	30 ± 1	30 ± 1	30	–	–	–	–	Fold less potent than compound 11f (GI50) [1]: 1.1 fold
Cc1nc(SCC(=O)c2cc3ccccc3oc2=O)sc1C(=O)/C=C/c1ccc(Cl)cc1 [Compound 11b, (E)-3-(2-((5-(3-(4-Chlorophenyl)acryloyl)-4-methylthiazol-2-yl)thio)acetyl)-2H-chromen-2-one]	–	92	–	–	69 ± 6	74 ± 6	70 ± 6	72 ± 6	71	0.018 (≈ 0.00868 µg/mL)	0.023 (≈ 0.0111 µg/mL)	0.042 (≈ 0.0202 µg/mL)	0.045 (≈ 0.0217 µg/mL)	Fold less effective than novobiocin (DNA gyrase IC50) (E. coli DNA gyrase): 1.1 fold; IC50 (E. coli DNA gyrase): 182 ± 13 nM; Fold less efficient than ciprofloxacin (MIC), B. subtilis (B. subtilis): 1.8 fold; Minimum inhibitory concentration (MIC), B. subtilis (B. subtilis): 18 ± 1 nM (≈ 0.00868 µg/mL); Minimum inhibitory concentration (MIC), S. aureus (S. aureus): 23 ± 1 nM (≈ 0.0111 µg/mL); Minimum inhibitory concentration (MIC), E. coli (E. coli): 42 ± 3 nM (≈ 0.0202 µg/mL); Minimum inhibitory concentration (MIC), P. aeruginosa (P. aeruginosa): 45 ± 3 nM (≈ 0.0217 µg/mL)

— publication PMC12088962, “Design, synthesis, and biological investigation of new thiazole-based derivatives as multi-targeted inhibitors endowed with antiproliferative, antioxidant, and antibacterial properties” (Frontiers in Chemistry, 2025)
